# Data taken from patent US10238710B2, “Peptide having anti-inflammatory, osteogenic and hair growth promoting activities, and use of same” (CAREGEN CO., LTD., priority 2014, dated 2019).
# Key:
# [1] = test system: IGF-1; experiment: Western blotting of hair growth protein IGF-1; format: cell-based, human; settings: HFDPC, 0.1-50 μg/ml, 24 hours
# Description: (§1) In order to observe the changes in the expression of IGF1, KGF, and Wnt3a, which are proteins involved in the development of hair roots in the human hair follicle dermal papilla cells, the cells were treated with the peptides of the present invention for 24 hours, and then subjected to western blotting using specific antibodies, thereby observing the changes in hair growth-related proteins.
# (§2) The cells were stabilized by the incubation overnight, and then treated with the peptides at different concentrations (0.1-50 μg/ml) for 24 hours. The cells were treated with the cell lysis buffer to obtain a lysate, followed by protein quantification, and then western blotting was performed with respect to IGF-1, KGF, and Wnt3a.
# (§3) The test was carried out using anti-IGF-1 antibody (Santa Cruz Biotechnology, USA), anti-KGF antibody (Santa Cruz Biotechnology, USA), and anti-Wnt3a antibody (Santa Cruz Biotechnology, USA).
# [2] = test system: DKK-1; experiment: Western blotting of DKK-1 with hair loss causing hormone DHT; format: cell-based, human; settings: HFDPC, 5 μg/ml DHT together with peptide 1 and 10 μg/ml, 48 hours
# Description: The cells were treated with DHT and the peptides for 48 hours, and then subjected to western blotting with respect to DKK-1 using specific antibodies, thereby observing the expression of DKK-1.
# The human hair follicle dermal papilla cells were seeded on a 6-well plate at a density of 1×10^5 cells/well. The cells were stabilized by incubation overnight, and then treated with 5 μg/ml DHT (Sigma Aldrich) together with the peptides at different concentrations (1 μg/ml and 10 μg/ml) for 48 hours. The cells were treated with the cell lysis buffer to obtain a lysate, followed by protein quantification, and then western blotting was performed with respect to DKK-1 using anti-DKK-1 antibody (Santa Cruz Biotechnology, USA).
# [3] = test system: Wnt3a; experiment: Western blotting of hair growth protein Wnt3a; format: cell-based, human; settings: HFDPC, 0.1-50 μg/ml, 24 hours
# Description: as §1, §2, §3
# [4] = test system: β-catenin; experiment: Western blotting of cell signaling material, β-catenin; format: cell-based, human; settings: HFDPC, 1 and 10 μg/ml, 30 minutes and 60 minutes
# Description: (§4) In order to observe the changes in the phosphorylation of ERK and the expression of PI3K, which are main signaling materials involved in cell proliferation in the human hair follicle dermal papilla cells, the cells were treated with the peptides of the present invention for 30 minutes and 60 minutes, and then subjected to western blotting using specific antibodies, thereby observing the pERK and PI3K changes. The test was carried out using anti-pERK antibody (Santa Cruz Biotechnology, USA) and anti-pPI3K antibody (Santa Cruz Biotechnology, USA).
# (§5) The cells were treated with the cell lysis buffer to obtain a lysate, followed by protein quantification, and then western blotting was performed with respect to Phospho-ERK (pERK), PI3K, and β-catenin.
# [5] = test system: MC3T3-E1 cells; experiment: Alizarin red staining (mineralization) of MC3T3-E1 cells; format: cell-based, mouse; settings: MC3T3-E1, 10 and 50 μg/ml, 14 days
# Description: Here, the medium exchange every three days and the treatment with the peptide were repeated (positive control: 30 ng/ml rhBMP2 (Cell signaling)). After the completion of the incubation, the plate well was washed two times with PBS, and the cells were immobilized by the treatment with 70% EtOH for 1 hour. Then, the cells were stained with 40 mM Alizarin red S (pH 4.2, Sigma Aldrich) for 10 minutes. The cells were treated with 10% cetyl pyridinium chloride (dissolved in 10 mM sodium phosphate (pH 7.0)) for 15 minutes, and then the absorbance was read at 560 nm using a spectrophotometer (SpectraMax, Molecular Devices).
# [6] = test system: Phospho-ERK (pERK); experiment: Western blotting of cell signaling material, ERK phosphorylation; format: cell-based, human; settings: HFDPC, 1 and 10 μg/ml, 30 minutes and 60 minutes
# Description: as §4, §5
# [7] = test system: osteoprotegerin (OPG); experiment: RT-PCR of osteogenic differentiation marker OPG; format: cell-based, mouse; settings: MC3T3-E1, three days
# [8] = test system: Phospho-PI3K; experiment: Western blotting using osteoblasts (PI3K phosphorylation); format: cell-based; settings: mouse osteoblast line, 50 μg/ml, 15 minutes
# Description: The cells were treated with the peptides at 50 μg/ml for 15 minutes (positive control: HGF 50 ng/ml). The cells were treated with the cell lysis buffer to obtain a lysate, followed by protein quantification, and then western blotting was performed with respect to Phospho-PI3K (P-PI3K) using anti-pPI3K antibody (Santa Cruz Biotechnology, USA).
# [9] = test system: MC3T3-E1 cells; experiment: ALP staining of MC3T3-E1 cells; format: cell-based, mouse; settings: MC3T3-E1, 10 μg/ml and 50 μg/ml, 14 days
# Description: The mouse osteoblast line, MC3T3-E1 cells were seeded on a 24-well plate at 4×10^4 cells/well, and then incubated overnight. After the exchange with a medium containing 50 μg/ml ascorbic acid+10 mM b-glycerophosphate, the cells were treated with each peptide at concentrations of 10 μg/ml and 50 μg/ml, and incubated for 14 days to induce differentiation. Here, the medium exchange every three days and the treatment with the peptide were repeated (positive control: BMP2 […]). The incubation-completed plate well was washed two times with PBS, and then the cells were immobilized with an immobilization buffer, in which acetone, 37% formaldehyde, and citric acid solution were mixed, for 30 seconds. The following staining was carried out using the leukocyte alkaline phosphatase staining kit (SIGMA).
# The cells were treated with a mixture, in which an FBB-alkaline solution was mixed with a sodium nitrite solution at 1:1, for 2 minutes, and then treated with a buffer composed of distilled water and naphthol AS-BI alkaline solution, followed by color development in an incubator at 37° C. for 1 hour.
# [10] = test system: human umbilical vein endothelial cells (HUVEC); experiment: Cell proliferation assay (SRB), HUVEC; format: cell-based; settings: 1, 10 and 50 μg/ml, 72 hours
# Description: In order to observe the cell proliferation effect on human hair follicle dermal papilla cells, human hair follicle germinal matrix cells, and human umbilical vein endothelial cells, which are main hair cells, each type of cells were seeded on a 96-well plate at a density of 3×10^3 cells/well, followed by incubation under conditions of 37° C. and 5% CO2 for 24 hours. After the medium was exchanged with the same culture medium completely excluding serum, the cells were treated with the peptides at different concentrations (1 μg/ml, 10 μg/ml, and 50 μg/ml), followed by incubation under the same conditions for 72 hours. After the incubation supernatant was removed, the cells were immobilized using ethanol, and washed three times with phosphate buffer saline (PBS). The wash solution was removed, and the cells were stained through the treatment with colorimetric SRB solution. After the cells were sufficiently washed with 1% acetic acid, the cells were observed using a microscope to observe the state of living cells. The absorbance was read at UV light of 560 nm, thereby measuring the survival conditions of cells
substance,measurement,setting,value
NH2-Ala-Cys-Arg-Ser-Ala-Ile-Gly-Arg-Pro-Cys-COOH (H-ACRSAIGRPC-OH; cysteine pairing not given here) [SEQ ID NO: 1],expression of IGF-1,[1],increased
same,expression of DKK-1 increased by DHT,[2],reduced
same,expression of Wnt3a,[3],increased
same,expression of β-catenin,[4],increased
same,mineralization (Alizarin red staining),[5],increased
same,phosphorylation of ERK,[6],increased
same,expression of osteoprotegerin (OPG),[7],increased
same,phosphorylation of PI3K by HGFR signal stimulation,[8],increased
same,ALP expression (ALP staining),[9],increased
same,"cell proliferation, HUVEC",[10],increased in a concentration-dependent manner
